No end group written: not given here.
Key:
[1] = test system: DCIP expressing N. benthamiana leaves; assay: Delivered complementation in planta (DCIP), infiltrated leaf discs, confocal imaging of nuclear sfGFP/mCherry; type: cell-based, Nicotiana benthamiana; settings: for DCIP delivery signal, statistical significance vs water infiltration control: N = 6, Kruskal–Wallis/Dunn
Description: The DCIP protocol involves transient expression of DCIP in N. benthamiana. 3 d.p.i., leaves are infiltrated with an aqueous solution of cargo that contains the GFP11 tag. Immediately after infiltration, the infiltrated leaves are either left intact or a leaf disc is excised from the infiltrated area and plated on pH 5.7 ½ MS. After a predetermined incubation time, the leaves are imaged on a confocal laser scanning microscope. For quantitative imaging, the resulting images are then automatically analyzed using Cell Profiler[30] for nuclear sfGFP and mCherry fluorescence (Fig. 1a). A detailed methodology is provided in the “Methods” section.
Three days after agroinfiltration, DCIP-expressing leaves were infiltrated with the treatment solutions. Unless otherwise stated, an 8 mm punch was then excised from the infiltrated area and plated, abaxial side up, onto ½ MS pH 5.7 agar plates. The plates were then left to incubate under ambient conditions for 4–5 h before imaging. For cold temperature treatment, after infiltration with ice-cold solutions of R9-GFP11 and disc excision, the leaf discs were plated onto ice-cold agar and immediately transferred to a 4 °C refrigerator for incubation. After incubation, the agar plates with leaf discs were kept on ice until the moment of imaging. For in situ incubation, leaves were simply infiltrated and the plant was returned to the growing chamber for incubation. All peptides were dissolved in sterile water and all recombinant proteins were dissolved in 10 mM Tris pH 7.4, 10 mM NaCl for infiltration.
Excised leaf discs were imaged on a Zeiss LSM880 laser scanning confocal microscope. Images for semi-quantitative analysis were collected using a ×20/1.0NA Plan-apochromat water immersion objective and larger field-of-views were collected using a ×5 objective. Leaf discs were mounted by sandwiching a droplet of water between the leaf disc and a #1.5 cover glass. BFP, sfGFP, mCherry, and chloroplast autofluorescence images were acquired by excitation with a 405, 488, 561, and 635 nm laser, respectively. The emission bands collected for BFP, sfGFP, mCherry, and autofluorescence were 410–529, 493–550, 578–645, and 652–728 nm, respectively. All images were collected such that the aperture was set to 1 Airy-unit in the mCherry channel. Images and profile plots were prepared for publication using Zen Blue software. Profile plots were smoothed by taking a moving window of three measurements and normalized to the maximum smoothed intensity for each color. For quantification experiments, z-stacks were acquired with the imaging depth set to capture the epidermal layer down to the point where mCherry nuclei could no longer be detected. z-stacks from four fields of view were acquired for every treatment condition. Quantitative image analysis and downstream processing was performed using Cell Profiler 3.0. […] Cell Profiler was then used to quantify the number, mCherry intensity, GFP intensity, and red (mCherry)/green (sfGFP) ratio of the projected nuclei.
Data obtained from Cell Profiler was processed using a script written in Python 3.9. Using the Cell Profiler data, GFP positive nuclei were counted using a Python script by setting a threshold defined as a one-tailed 99% confidence interval above the mean green/red ratio in the untreated control or water infiltration control of each experiment. […]

[2] = test system: f-actin; assay: cytoDCIP delivery-mediated actin labeling (Lifeact/f-actin scaffolding); type: cell-based, Nicotiana benthamiana
Description: After confirming that recombinant proteins could be efficiently delivered into plant cells with R9 CPP, we asked if delivered proteins could subsequently mediate protein–protein interactions. Being able to mediate protein–protein interactions using delivered proteins could enable new technologies that alter plant physiology. Therefore, in a proof-of-concept experiment, we delivered the 1.9 kDa f-actin binding peptide, Lifeact[50], tagged with GFP11 and R9 (Fig. 6a) into cytoDCIP expressing N. benthamiana leaves. In this scheme, when Lifeact is internalized, GFP11 acts as a scaffold to tether cytoDCIP to actin filaments through the Lifeact/f-Actin interaction. […]
(§1) Excised leaf discs were imaged on a Zeiss LSM880 laser scanning confocal microscope. Images for semi-quantitative analysis were collected using a ×20/1.0NA Plan-apochromat water immersion objective and larger field-of-views were collected using a ×5 objective. […] For quantification experiments, z-stacks were acquired with the imaging depth set to capture the epidermal layer down to the point where mCherry nuclei could no longer be detected. z-stacks from four fields of view were acquired for every treatment condition. Quantitative image analysis and downstream processing was performed using Cell Profiler 3.0. […]

[3] = test system: downstream AtWUS genes; assay: RT-qPCR of direct targets of AtWUS in treated seedlings; type: in vivo, Arabidopsis thaliana; settings: 24 h
Description: The previous results in N. benthamiana motivated us to determine whether or not the delivered AtWUS is transcriptionally active. We treated 12-day-old Arabidopsis seedlings for 24 h with 1 µM GFP11-AtWUS-R9. A. thaliana was chosen as a model species due to the well-characterized AtWUS pathway in A. thaliana. Seedlings were subsequently harvested and subjected to RT-qPCR analysis for six known direct targets of AtWUS (Fig. 7d). […] Ectopic expression of AtWUS downregulates the expression of cell identity markers ARR6, AS2, KAN1/2 and YAB3 by binding directly to their promoters[56],[57], and upregulates the expression of its own negative regulator, CLV3[58]. […] In this second experiment, 3 µM of protein was also used due to apparent batch-to-batch variation of activity and lower purity of the recombinant protein (Supplemental Fig. S12b, c).
Arabidopsis (Col-0) seedlings were grown in 12-well culture plates with 8–10 seedlings per well in 1 mL of 1x MS media supplemented with 0.5% sucrose and 2.5 mM MES, pH 5.7. Seeds were sterilized by washing in 70% ethanol for 30 s followed by a 15-min incubation in 50% bleach supplemented with 0.5% Tween-20 and rinsed 5x with DI water. Sterilized seeds were stratified in plates at 4 °C for 3 days after plating. Seedlings were grown at 22 °C under 16-h photoperiods for 12 days. To treat seedlings, the liquid media in each well was replaced with control and WUSCHEL treatments. Control wells were refreshed with 1 mL of MS growth media. WUSCHEL proteins were prepared for use by dialysis into 10 mM MES pH 5.7 for 2 h before dilution to their final concentration. Treatment wells were refreshed with 1 mL of 1 or 3 μM of protein (R9-GFP11, GFP11-AtWUS-R9, GFP11-AtWUS) dissolved in MS growth media. […]
Total RNA was extracted from Arabidopsis seedlings using an RNeasy Plant Mini Kit (Qiagen). […] Relative gene expression was determined using the ddCt method[80] using SAND1 as the reference gene. Relative gene expression was determined from four biological pools each containing 8–10 seedlings. […]

[4] = test system: cytoDCIP-expressing N. benthamiana leaf; assay: cytoDCIP nuclear localization of delivered AtWUS; type: cell-based, Nicotiana benthamiana; settings: 140 µM, leaf disc, 6 h
Description: After establishing the feasibility of using DCIP to assess recombinant protein delivery in intact leaves, we sought to examine R9-mediated delivery of the Arabidopsis plant morphogenic transcription factor, WUSCHEL (AtWUS), in N. benthamiana leaves. AtWUS was chosen as a candidate cargo due to its applications for somatic embryogenesis in plants and its high degree of molecular characterization[54],[55]. […] Because AtWUS is a transcription factor, we also expected to see GFP11-AtWUS-R9 localize to the nucleus without the SV40 NLS of DCIP. To test this, we infiltrated a cytoDCIP-expressing N. benthamiana leaf with 140 µM GFP11-AtWUS-R9. If the delivered AtWUS has active NLS activity, we would expect green fluorescence localized to only the nucleus and excess, uncomplemented mCherry-GFP1-10 to remain in the cytosol. […]
as §1, with “condition.” for “condition. Quantitative image analysis and downstream processing was performed using Cell Profiler 3.0.”

With `CC[C@H](C)[C@H](NC(=O)CNC(=O)[C@H](C)NC(=O)[C@H](C)NC(=O)[C@H](CC(N)=O)NC(=O)[C@@H](NC(=O)[C@H](Cc1ccc(O)cc1)NC(=O)[C@H](CCC(=O)O)NC(=O)[C@H](Cc1c[nH]cn1)NC(=O)[C@H](CC(C)C)NC(=O)[C@@H](NC(=O)[C@H](CCSC)NC(=O)[C@H](Cc1c[nH]cn1)NC(=O)[C@H](CC(=O)O)NC(=O)[C@H](CCCNC(=N)N)NC(=O)[C@H](CO)NC(=O)CNC(=O)[C@H](CO)NC(=O)CNC(=O)[C@H](CC(C)C)NC(=O)[C@H](Cc1ccc(O)cc1)NC(=O)[C@H](CCCCN)NC(=O)[C@H](CC(C)C)NC(=O)[C@@H](NC(=O)[C@H](CCCCN)NC(=O)[C@H](CCCCN)NC(=O)[C@H](Cc1ccccc1)NC(=O)[C@H](CC(C)C)NC(=O)[C@H](CCCCN)NC(=O)[C@@H](N)CCCCN)[C@@H](C)CC)C(C)C)C(C)C)C(=O)N[C@H](C(=O)O)[C@@H](C)O` [BP100-GFP11] the “sfGFP complementation observed by confocal imaging (qualitative)” value ([1]; 100 μM peptide, 4–5 h post-infiltration) was “rare instances of successful delivery” and the “DCIP delivery signal, statistical significance vs water infiltration control” value ([1]; 100 μM, 4–5 h) was “no statistically significant signal”.

In the case of “MGSSHHHHHHENLYFQSNARDHMVLHEYVNAAGITGGGGSGGGGSYFQSNAMGVADLIKKFESISKEEGIGSGSNGNSGSVSRRRRRRRRR* [GFP11-Lifeact-R9]”, the “localization of sfGFP/mCherry signal in cytoDCIP leaves (actin filament labeling)” value ([2]; 120 µM, leaf discs, 6 h, pavement cells) is reported as “robust labeling of actin filaments”.

For “RKKRRQRRRGSGSRDHMVLHEYVNAAGIT [TAT-GFP11]”, the “delivery efficiencies (percent GFP-positive nuclei)” value ([1]; 100 μM CPP-GFP11 conjugate, 4–5 h, N = 6) was 30–80% and the “delivery efficiency normalized to R9 CPP” value ([1]; 100 μM, 4–5 h, N = 6) was 0.87 times.

With RDHMVLHEYVNAAGIT [GFP11] the “DCIP delivery signal, statistical significance vs water infiltration control” value ([1]; 100 μM, 4–5 h) was “no statistically significant signal”.

`C/C1=C/C(=O)O[C@@H]2C[C@@H](CC[C@H](C)/C=C\CC1)O[C@@](O)([C@@H]1CSC(=O)N1)C2` [LatB, latrunculin B, reference compound] was tested, and the “actin filaments on cotreatment with LatB” value ([2]; 25 µM LatB cotreated with GFP11-Lifeact-R9, 6 h) was “no actin filaments were observed”.

B1: GFP11-AtWUS: recombinant AtWUS with GFP11 tag, without R9 fusion, 38.5 kDa (plasmid 1BR9-AtWUSSTOP) (protein, UniProt Q9SB92 1-292, looked up)
Protein WUSCHEL: MEPPQHQHHHHQADQESGNNNNNKSGSGGYTCRQTSTRWTPTTEQIKILKELYYNNAIRSPTADQIQKITARLRQFGKIEGKNVFYWFQNHKARERQKKRFNGTNMTTPSSSPNSVMMAANDHYHPLLHHHHGVPMQRPANSVNVKLNQDHHLYHHNKPYPSFNNGNLNHASSGTECGVVNASNGYMSSHVYGSMEQDCSMNYNNVGGGWANMDHHYSSAPYNFFDRAKPLFGLEGHQEEEECGGDAYLEHRRTLPLFPMHGEDHINGGSGAIWKYGQSEVRPCASLELRLN
modifications: GFP11 tag
In the case of B1, the “CLV3 expression in GFP11-AtWUS-treated plants” value ([3]; 3 µM) is reported as “CLV3 downregulation”, the “tested AtWUS target genes regulated in an expected manner, first experimental repeat” value ([3]; 3 µM, six genes, N = 4) is reported as 3/6 and the “tested AtWUS target genes regulated in an expected manner, second experimental repeat” value ([3]; six genes, N = 4, repeat) is reported as 1/6. For the same molecule, the “nuclear localization of delivered protein in cytoDCIP leaf” value [4] was “possessed nuclear localization activity”.
